8 compounds from ChEMBL document CHEMBL1159107, “Novel semisynthetic spin-labeled derivatives of podophyllotoxin with cytotoxic and antioxidative activity” (Bioorg Med Chem Lett, 2010) can be followed below.

Assay [1] deals with Heart. Description: Antioxidant activity in Sprague-Dawley rat heart assessed as inhibition of malonaldehyde. The assay is classed as functional, tissue-based.
For assay [2], the system named is RPMI-8226. Description: Cytotoxicity against human RPMI8226 cells after 48 hrs. The assay is classed as functional, cell-based. The conditions noted are these: RPMI-8226, 48 h.
The test system of assay [3] is HL-60. Kind of assay: Cytotoxicity against human HL60 cells after 48 hrs. The assay is classed as functional, cell-based. To be noted: HL-60, 48 h.
In assay [4] the test system is Kidney. Description: Antioxidant activity in Sprague-Dawley rat kidney assessed as inhibition of malonaldehyde. The assay is classed as functional, tissue-based.
For assay [5], the system named is A549. Kind of assay: Cytotoxicity against human A549 cells after 48 hrs. The assay is classed as functional, cell-based. To be noted: A549, 48 h.
In assay [6] the test system is Liver. Description: Antioxidant activity in Sprague-Dawley rat liver assessed as inhibition of malonaldehyde. The assay is classed as functional, tissue-based.

As usually defined, the IC50 is the concentration needed to halve the response being measured.

Regarding `COc1cc([C@@H]2c3cc4c(cc3[C@@H](NC(=O)CNC(=O)OC3CC(C)(C)N([O])C(C)(C)C3)[C@H]3COC(=O)[C@H]23)OCO4)cc(OC)c1O`, the IC50 in assay [1] turned out to be 7190 nM; in assay [2] it was 330 nM; in assay [3], 320 nM; in assay [4], 8900 nM; in assay [5] it was 210 nM; in assay [6] it was 7470 nM.
For `COc1cc([C@@H]2c3cc4c(cc3[C@@H](NC(=O)[C@H](C)NC(=O)OC3CC(C)(C)N([O])C(C)(C)C3)[C@H]3COC(=O)[C@H]23)OCO4)cc(OC)c1O`, the IC50 was 6390 nM in assay [1]; 260 nM in assay [2]; 220 nM in assay [3]; 7680 nM in assay [4]; 120 nM in assay [5]; 7640 nM in assay [6].
Take `COc1cc([C@@H]2c3cc4c(cc3[C@@H](NC(=O)[C@@H](NC(=O)OC3CC(C)(C)N([O])C(C)(C)C3)C(C)O)[C@H]3COC(=O)[C@H]23)OCO4)cc(OC)c1O` (some centres not stated): the IC50 in assay [1] was 8790 nM; in assay [2] it was 78 nM; in assay [3] it was 210 nM; in assay [4], 7450 nM; in assay [5] it was 210 nM; in assay [6] it was 7120 nM.
On to `COc1cc([C@@H]2c3cc4c(cc3[C@@H](NC(=O)[C@H](Cc3ccccc3)NC(=O)OC3CC(C)(C)N([O])C(C)(C)C3)[C@H]3COC(=O)[C@H]23)OCO4)cc(OC)c1O`, for which the IC50 in assay [1] turned out to be 7390 nM; in assay [2], 90 nM; in assay [3] it was 210 nM; in assay [4], 9630 nM; in assay [5], 210 nM; in assay [6], 6550 nM.
For the compound `COc1cc([C@@H]2c3cc4c(cc3[C@@H](NC(=O)[C@H](CCSC)NC(=O)OC3CC(C)(C)N([O])C(C)(C)C3)[C@H]3COC(=O)[C@H]23)OCO4)cc(OC)c1O`, the IC50 in assay [1] came to 5890 nM; in assay [2], 480 nM; in assay [3], 670 nM; in assay [4] it was 7550 nM; in assay [5] it was 420 nM; in assay [6], 6850 nM.
For `COc1cc([C@@H]2c3cc4c(cc3[C@@H](NC(=O)[C@@H](NC(=O)OC3CC(C)(C)N([O])C(C)(C)C3)C(C)C)[C@H]3COC(=O)[C@H]23)OCO4)cc(OC)c1O`, the IC50 in assay [1] was 8040 nM; in assay [2], 61 nM; in assay [3] it was 240 nM; in assay [4], 8880 nM; in assay [5], 150 nM; in assay [6], 8690 nM.
Regarding `COc1cc([C@@H]2c3cc4c(cc3[C@@H](O[C@@H]3O[C@@H]5CO[C@@H](C)O[C@H]5[C@H](O)[C@H]3O)[C@H]3COC(=O)[C@H]23)OCO4)cc(OC)c1O` [ETOPOSIDE], the IC50 amounted to 40700 nM in assay [1]; 140 nM in assay [2]; 420 nM in assay [3]; 23800 nM in assay [4]; 290 nM in assay [5]; 43900 nM in assay [6].
With `COc1cc([C@@H]2c3cc4c(cc3[C@@H](NC(=O)[C@H](CC(C)C)NC(=O)OC3CC(C)(C)N([O])C(C)(C)C3)[C@H]3COC(=O)[C@H]23)OCO4)cc(OC)c1O`, the IC50 in assay [2] stood at 89 nM; in assay [3] it was 160 nM; in assay [4], 8470 nM; in assay [5], 190 nM; in assay [6], 8850 nM.
